US6620961B1, “Biarylalkylenecarbamic acid derivatives and bacteriocides for agricultural and horticultural use” (Kumiai Chemical Industry Co., Ltd., priority 1997, dated 2003)

Test system: Pseudoperonospora cubensis
Test: Test for Preventive Effect on Cucumber Downy Mildew
Assay type: in vivo
Design: key: A: No diseased area; B: Diseased area of less than 25%; C: Diseased area of at least 25% but less than 50%; Diseased area of at least 50%
Details: cucumber seedlings, wettable powder at 500 ppm active ingredient, 7 days after inoculation
Experimental: Test for Preventive Effect on Cucumber Downy Mildew 9 cucumber seeds (variety: Sagami-hanpaku) were sown in each 9 cmx9 cm polyvinyl chloride pot and grown in a greenhouse for 7 days. […] Then, the seedlings were inoculated with Pseudoperonospora cubensis zoosporangia in suspension by spraying and immediately placed in a moist chamber at 22° C. for 24 hours. Thereafter, the seedlings were placed in a greenhouse. 7 days after the inoculation, the total diseased area in each pot was observed and evaluated on the basis of the standards shown in Table 59. [table]

Compound | Evaluation (total diseased area in each pot)
COC(=O)NC(C)c1cccc(-c2ccccc2)c1 (racemic) [3-1] | A
COC(=O)NC(C)c1cccc(-c2cccc(C)c2)c1 (racemic) [3-6] | A
COC(=O)NC(C)c1cccc(-c2cccc(C(F)(F)F)c2)c1 (racemic) [3-16] | A
COC(=O)NC(C)c1cccc(-c2ccc(F)c(Cl)c2)c1 (racemic) [3-21] | A
COC(=O)NCc1cccc(-c2cccc(Cl)c2)c1 [1-3] | A
COC(=O)NCc1cccc(-c2ccc(F)cc2)c1 [1-7] | B (Diseased area of less than 25%)
COC(=O)NCc1cccc(-c2ccccc2C(F)(F)F)c1 [1-33] | B (Diseased area of less than 25%)
COC(=O)NCc1cccc(-c2cccc(C(F)(F)F)c2)c1 [1-34] | A
COC(=O)NCc1cccc(-c2cccc(OC)c2)c1 [1-41] | A
COC(=O)NCc1cccc(-c2cccc([N+](=O)[O-])c2)c1 [1-103] | B (Diseased area of less than 25%)
COC(=O)NCc1cccc(-c2ccc(Cl)c(Cl)c2)c1 [1-118, Methyl N-[3-(3,4-dichlorophenyl)benzyl]carbamate] | B (Diseased area of less than 25%)
COC(=O)NCc1cccc(-c2cc(Cl)cc(Cl)c2)c1 [1-119] | B (Diseased area of less than 25%)
COC(=O)NCc1cccc(-c2ccc(C)c(C)c2)c1 [1-125] | A
CNC(=O)NCc1cccc(-c2ccccc2)c1 [1-253] | B (Diseased area of less than 25%)
COC(=O)N(Cc1cccc(-c2cccc(C)c2)c1)OC [1-266] | B (Diseased area of less than 25%)
COC(=O)NCc1cc(C)cc(-c2ccccc2)c1 [2-91] | B (Diseased area of less than 25%)
COC(=O)NCc1cc(C)cc(-c2cccc(C(F)(F)F)c2)c1 [2-98] | B (Diseased area of less than 25%)
COC(=O)NCc1cc(-c2ccccc2)ccc1F [2-102] | A
COC(=O)NCc1cc(-c2cccc(Cl)c2)ccc1F [2-106] | A
COC(=O)NCc1cc(-c2ccc(Cl)cc2)ccc1F [2-107] | A

Test system: Venturia inaequalis
Test: Test for Preventive Effect on Apple Scab
Assay type: in vivo
Design: key: A: No diseased area; B: Diseased area of less than 25%; C: Diseased area of at least 25% but less than 50%; Diseased area of at least 50%
Details: apple seedlings (Kogyoku), 500 ppm active ingredient, 20 ml per pot, 14 days after inoculation
Experimental: [table] Test for Preventive Effect on Apple Scab 5 apple seeds (variety: Kogyoku) were sown in each 9 cm×9 cm polyvinyl chloride pot and grown in a greenhouse for 20 days. […] Then, the seedlings were inoculated with Venturia inaequalis spores in suspension by spraying and immediately placed in a moist chamber at 22° C. for 48 hours. Thereafter, the seedlings were placed in a greenhouse for development of the disease. 14 days after the inoculation, the diseased areas of the upper two of the inoculated leaves were observed and evaluated on the basis of the standards shown in Table 59.

Compound | Evaluation (diseased area of the upper two inoculated leaves)
COC(=O)NC(C)c1cccc(-c2ccccc2)c1 (racemic) [3-1] | A
COC(=O)NC(C)c1cccc(-c2cccc(C)c2)c1 (racemic) [3-6] | A
COC(=O)NC(C)c1cccc(-c2cccc(C(F)(F)F)c2)c1 (racemic) [3-16] | A
COC(=O)NC(C)c1cccc(-c2ccc(F)c(Cl)c2)c1 (racemic) [3-21] | A
COC(=O)NCc1cc(-c2cccc(C(F)(F)F)c2)ccc1OC(F)F [2-365] | A
COC(=O)NCc1cc(-c2ccc(F)c(F)c2)ccc1F [2-412] | A
COC(=O)NCc1cc(-c2ccc(F)c(F)c2)ccc1Cl [2-461] | A
COC(=O)NCc1cc(-c2ccc(F)c(Cl)c2)ccc1Cl [2-465] | A
COC(=O)N(Cc1cccc(-c2ccccc2)c1C)OC [4-22, Methyl N-methoxy-N-(2-methyl-3-phenylbenzyl)carbamate] | A
COC(=O)NCc1cccc(-c2ccc3ccccc3c2C)c1 [6-1] | A

Same assay, conditions: apple seedlings, wettable powder at 500 ppm active ingredient, preventive, 14 days after inoculation

Compound | Evaluation (diseased areas of the upper two of the inoculated leaves)
COC(=O)NCc1cccc(-c2cccc(Cl)c2)c1 [1-3] | A
COC(=O)NCc1cccc(-c2ccc(F)cc2)c1 [1-7] | A
COC(=O)NCc1cccc(-c2ccccc2C(F)(F)F)c1 [1-33] | A
COC(=O)NCc1cccc(-c2cccc(C(F)(F)F)c2)c1 [1-34] | A
COC(=O)NCc1cccc(-c2cccc(OC)c2)c1 [1-41] | A
COC(=O)NCc1cccc(-c2cccc([N+](=O)[O-])c2)c1 [1-103] | A
COC(=O)NCc1cccc(-c2ccc(Cl)c(Cl)c2)c1 [1-118, Methyl N-[3-(3,4-dichlorophenyl)benzyl]carbamate] | A
COC(=O)NCc1cccc(-c2cc(Cl)cc(Cl)c2)c1 [1-119] | A
COC(=O)NCc1cccc(-c2ccc(C)c(C)c2)c1 [1-125] | A
COCN(Cc1cccc(-c2ccccc2Cl)c1)C(=O)OC [1-202] | A
COC(=O)N(Cc1cccc(-c2ccccc2)c1)OC [1-264] | A
COC(=O)N(Cc1cccc(-c2cccc(C)c2)c1)OC [1-266] | A
COC(=O)N(Cc1cccc(-c2cccc(Cl)c2)c1)OC [1-275] | A
COC(=O)N(Cc1cccc(-c2cccc(C(F)(F)F)c2)c1)OC [1-277] | A
COC(=O)NCc1ccc(F)c(-c2ccccc2)c1 [2-17] | A
COC(=O)NCc1ccc(F)c(-c2ccc(Cl)cc2)c1 [2-21] | A
COC(=O)NCc1ccc(F)c(-c2cccc(C)c2)c1 [2-22] | A
COC(=O)NCc1cc(C)cc(-c2ccccc2)c1 [2-91] | A
COC(=O)NCc1cc(C)cc(-c2ccc(Cl)cc2)c1 [2-95] | A
COC(=O)NCc1cc(C)cc(-c2ccc(C)cc2)c1 [2-97] | A
COC(=O)NCc1cc(C)cc(-c2cccc(C(F)(F)F)c2)c1 [2-98] | A
COC(=O)NCc1cc(-c2ccccc2)ccc1F [2-102] | A
COC(=O)NCc1cc(-c2cccc(Cl)c2)ccc1F [2-106] | A
COC(=O)NCc1cc(-c2ccc(Cl)cc2)ccc1F [2-107] | A
CCc1ccc(-c2ccc(F)c(CNC(=O)OC)c2)cc1 [2-112] | A
COC(=O)NCc1cc(-c2ccc(C(C)C)cc2)ccc1F [2-114] | A

Test system: Erysiphe graminis
Test: Test for Preventive Effect on Wheat Powdery Mildew
Assay type: in vivo
Design: key: A: No diseased area; B: Diseased area of less than 25%; C: Diseased area of at least 25% but less than 50%; Diseased area of at least 50%
Details: wheat seedlings (Norin-61-go), 500 ppm active ingredient, 10 ml per pot, 10 days after inoculation
Experimental: [table] Test for Preventive Effect on Wheat Powdery Mildew 9 wheat seeds (variety: […] Then, the seedlings were inoculated with […] graminis spores in suspension and placed in a greenhouse at 25 to 30° C. 10 days after the inoculation, the total diseases area of the first leaves in each pot was observed and evaluated on the basis of the standards shown in Table 59. The results are shown in Tables 67 to 71.

Compound | Evaluation (total diseased area of the first leaves in each pot)
COC(=O)NC(C)c1cccc(-c2ccccc2)c1 (racemic) [3-1] | B (Diseased area of less than 25%)
COC(=O)NC(C)c1cccc(-c2cccc(C)c2)c1 (racemic) [3-6] | A
COC(=O)NC(C)c1cccc(-c2cccc(C(F)(F)F)c2)c1 (racemic) [3-16] | A
COC(=O)NC(C)c1cccc(-c2ccc(F)c(Cl)c2)c1 (racemic) [3-21] | B (Diseased area of less than 25%)
COC(=O)NCc1cccc(-c2cccc(Cl)c2)c1 [1-3] | A
COC(=O)NCc1cccc(-c2ccc(F)cc2)c1 [1-7] | A
COC(=O)NCc1cccc(-c2ccccc2C(F)(F)F)c1 [1-33] | A
COC(=O)NCc1cccc(-c2cccc(C(F)(F)F)c2)c1 [1-34] | A
COC(=O)NCc1cccc(-c2cccc(OC)c2)c1 [1-41] | A
COC(=O)NCc1cccc(-c2ccc(Cl)c(Cl)c2)c1 [1-118, Methyl N-[3-(3,4-dichlorophenyl)benzyl]carbamate] | A
COC(=O)NCc1cccc(-c2cc(Cl)cc(Cl)c2)c1 [1-119] | A
COC(=O)NCc1cccc(-c2ccc(C)c(C)c2)c1 [1-125] | A
COCN(Cc1cccc(-c2ccccc2Cl)c1)C(=O)OC [1-202] | A
COC(=O)N(Cc1cccc(-c2ccccc2)c1)OC [1-264] | A
COC(=O)N(Cc1cccc(-c2cccc(C)c2)c1)OC [1-266] | A
COC(=O)N(Cc1cccc(-c2cccc(Cl)c2)c1)OC [1-275] | A
COC(=O)N(Cc1cccc(-c2cccc(C(F)(F)F)c2)c1)OC [1-277] | A
COC(=O)NCc1ccc(F)c(-c2ccccc2)c1 [2-17] | B (Diseased area of less than 25%)

Compound | Evaluation (total diseased area of the first leaves in each pot)
COC(=O)NCc1ccc(F)c(-c2ccc(Cl)cc2)c1 [2-21] | B (Diseased area of less than 25%)
COC(=O)NCc1ccc(F)c(-c2cccc(C)c2)c1 [2-22] | B (Diseased area of less than 25%)
COC(=O)NCc1cc(C)cc(-c2ccccc2)c1 [2-91] | A
COC(=O)NCc1cc(C)cc(-c2ccc(Cl)cc2)c1 [2-95] | A
COC(=O)NCc1cc(C)cc(-c2ccc(C)cc2)c1 [2-97] | A
COC(=O)NCc1cc(C)cc(-c2cccc(C(F)(F)F)c2)c1 [2-98] | A
COC(=O)NCc1cc(-c2ccccc2)ccc1F [2-102] | A
COC(=O)NCc1cc(-c2cccc(Cl)c2)ccc1F [2-106] | A
COC(=O)NCc1cc(-c2ccc(Cl)cc2)ccc1F [2-107] | A
CCc1ccc(-c2ccc(F)c(CNC(=O)OC)c2)cc1 [2-112] | B (Diseased area of less than 25%)
COC(=O)NCc1cc(-c2ccc(C(C)C)cc2)ccc1F [2-114] | A
COC(=O)NCc1cc(-c2cccc(C(F)(F)F)c2)ccc1OC(F)F [2-365] | B (Diseased area of less than 25%)
COC(=O)NCc1cc(-c2ccc(F)c(F)c2)ccc1F [2-412] | A
COC(=O)NCc1cc(-c2ccc(F)c(F)c2)ccc1Cl [2-461] | A
COC(=O)NCc1cc(-c2ccc(F)c(Cl)c2)ccc1Cl [2-465] | A
COC(=O)N(Cc1cccc(-c2ccccc2)c1C)OC [4-22, Methyl N-methoxy-N-(2-methyl-3-phenylbenzyl)carbamate] | A
COC(=O)NCc1cccc(-c2ccc3ccccc3c2C)c1 [6-1] | B (Diseased area of less than 25%)
